Values after ≈ are worked out from the molar mass of the structure shown.
Assays:
[1] = target: CYP 3A4 (Homo sapiens (Human), UniProt P08684); experiment: biochemical
[2] = test system: K. pneumoniae AR 0066; experiment: microbe, parasite or virus in culture; assay type: cell-based; settings: Klebsiella pneumoniae, AR0066, read-out: MIC K. pneumoniae AR 0066, clinical isolate
Outline: (§1)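 Susceptibility values come from triplicate biological repeats of a CLSI-style broth dilution assay using cation-adjusted Mueller-Hinton medium.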

[3] = test system: K. pneumoniae AR 0113; experiment: microbe, parasite or virus in culture; assay type: cell-based; settings: Klebsiella pneumoniae, AR0113, read-out: MIC K. pneumoniae AR 0113, clinical isolate
Outline: as §1

[4] = test system: A. baumannii AR 0273; experiment: microbe, parasite or virus in culture; assay type: cell-based; settings: Acinetobacter baumannii, AR0273, read-out: MIC A. baumannii AR 0273, clinical isolate
Outline: as §1

[5] = test system: A. baumannii AR 0033; experiment: microbe, parasite or virus in culture; assay type: cell-based; settings: Acinetobacter baumannii, AR0033, read-out: MIC A. baumannii AR 0033, clinical isolate
Outline: as §1

[6] = test system: E. coli AR 0085; experiment: microbe, parasite or virus in culture; assay type: cell-based; settings: Escherichia coli, AR0085, read-out: MIC E. coli AR 0085, clinical isolate
Outline: as §1

[7] = test system: A. baumannii AR 0313; experiment: microbe, parasite or virus in culture; assay type: cell-based; settings: Acinetobacter baumannii, AR0313, read-out: MIC A. baumannii AR 0313, clinical isolate
Outline: as §1

[8] = test system: E. coli AR 0048; experiment: microbe, parasite or virus in culture; assay type: cell-based; settings: Escherichia coli, AR0048, read-out: MIC E. coli AR 0048, clinical isolate
Outline: as §1

[9] = test system: A. baumannii AR 0299; experiment: microbe, parasite or virus in culture; assay type: cell-based; settings: Acinetobacter baumannii, AR0299, read-out: MIC A. baumannii AR 0299, clinical isolate
Outline: as §1

[10] = test system: K. pneumoniae AR 0560; experiment: microbe, parasite or virus in culture; assay type: cell-based; settings: Klebsiella pneumoniae, AR0560, read-out: MIC K. pneumoniae AR 0560, clinical isolate
Outline: as §1

[11] = target: CYP 2C9 (Homo sapiens (Human), UniProt P11712); experiment: biochemical
CYP 2C9, sequence (P11712 whole entry): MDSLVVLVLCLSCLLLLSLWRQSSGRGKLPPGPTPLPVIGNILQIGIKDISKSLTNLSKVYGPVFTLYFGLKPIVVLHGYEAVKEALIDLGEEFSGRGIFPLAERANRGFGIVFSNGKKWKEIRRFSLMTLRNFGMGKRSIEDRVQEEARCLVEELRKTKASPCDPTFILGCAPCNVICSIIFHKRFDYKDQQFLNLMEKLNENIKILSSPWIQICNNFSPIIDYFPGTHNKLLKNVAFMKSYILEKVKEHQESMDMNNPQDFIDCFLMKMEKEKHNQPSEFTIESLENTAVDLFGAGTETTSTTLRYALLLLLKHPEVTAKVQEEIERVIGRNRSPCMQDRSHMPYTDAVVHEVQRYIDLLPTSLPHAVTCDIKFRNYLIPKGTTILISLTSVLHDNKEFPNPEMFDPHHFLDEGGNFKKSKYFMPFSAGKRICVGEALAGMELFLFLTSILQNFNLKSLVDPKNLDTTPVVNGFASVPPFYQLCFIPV

[12] = Hepatocyte stability; assay type: in vitro ADME
[13] = target: CYP 2D6 (Homo sapiens (Human), UniProt P10635); experiment: biochemical
CYP 2D6, sequence (P10635 whole entry): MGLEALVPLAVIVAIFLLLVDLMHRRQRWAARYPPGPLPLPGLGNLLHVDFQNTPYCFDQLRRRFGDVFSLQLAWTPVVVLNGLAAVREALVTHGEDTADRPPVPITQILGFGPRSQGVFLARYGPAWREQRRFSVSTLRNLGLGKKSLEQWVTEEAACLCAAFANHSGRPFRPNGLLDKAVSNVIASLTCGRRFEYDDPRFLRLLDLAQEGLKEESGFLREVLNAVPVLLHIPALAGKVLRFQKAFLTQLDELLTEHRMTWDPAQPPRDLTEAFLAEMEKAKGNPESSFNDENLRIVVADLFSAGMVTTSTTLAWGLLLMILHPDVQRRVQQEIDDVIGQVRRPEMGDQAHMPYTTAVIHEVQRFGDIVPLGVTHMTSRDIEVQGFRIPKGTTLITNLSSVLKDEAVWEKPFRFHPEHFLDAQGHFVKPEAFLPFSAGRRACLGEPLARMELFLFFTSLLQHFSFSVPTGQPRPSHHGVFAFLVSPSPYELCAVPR

[14] = test system: S. aureus USA300 LAC; experiment: Neutropenic mouse thigh infection; assay type: in vivo, CD-1 mice; settings: 5 mg/kg, r.o.
Method: FIG. 7. […] A) Neutropenic mouse thigh infection model initiated in female BALB/c mice with A. baumannii AR-88 (1.36×10^5 CFU per mouse intramuscular, left thigh) were treated with vehicle (5 mice) or fabimycin (10 mice) four times a day (75 mg/kg intravenously) and bacterial burden evaluated at 26 h post-infection. B) Neutropenic mouse thigh infection initiated in CD-1 mice with S. aureus USA300 LAC (2.3×10^6 CFU per mouse intramuscular in thigh) were treated with vehicle (8 mice) or FabI inhibitor (8 mice per group) 2 and 7 h post-infection (5 mg/kg retro-orbital IV), […]
With formulation, MTD, and pharmacokinetic data in hand, the efficacy of fabimycin was evaluated in murine infection models. To start, a comparative assessment was made of fabimycin and Debio-1452-NH3 in two murine neutropenic infection models using a dosing regimen that is at the MTD for Debio-1452-NH3 but below the MTD for fabimycin (three doses, intramuscular, at 50 mg/kg).
Chart 1. Summary of Fabimycin in vivo models.

[15] = target: CYP 2C19 (Homo sapiens (Human), UniProt P33261); experiment: biochemical
CYP 2C19, sequence (P33261 whole entry): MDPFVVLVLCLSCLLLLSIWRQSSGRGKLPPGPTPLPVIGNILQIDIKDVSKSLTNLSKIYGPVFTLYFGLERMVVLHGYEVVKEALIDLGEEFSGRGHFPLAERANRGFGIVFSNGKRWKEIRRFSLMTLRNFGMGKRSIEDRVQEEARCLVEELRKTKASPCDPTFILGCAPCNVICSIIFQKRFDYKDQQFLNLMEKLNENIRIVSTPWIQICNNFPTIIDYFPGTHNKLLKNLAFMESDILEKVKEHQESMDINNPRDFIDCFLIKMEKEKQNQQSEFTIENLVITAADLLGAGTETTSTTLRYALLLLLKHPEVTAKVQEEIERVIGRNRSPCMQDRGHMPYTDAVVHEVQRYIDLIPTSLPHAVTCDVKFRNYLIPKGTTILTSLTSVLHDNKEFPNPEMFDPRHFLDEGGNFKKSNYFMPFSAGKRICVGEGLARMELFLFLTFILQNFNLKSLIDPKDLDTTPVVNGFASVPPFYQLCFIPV

[16] = test system: E. coli MG1655; experiment: Antimicrobial susceptibility test (MIC); assay type: cell-based; settings: Escherichia coli, MG1655
Outline: (§2)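 CLSI micro-dilution broth method in cation-adjusted Mueller-Hinton broth, in biological triplicate; human serum (pooled, filtered) was also used.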

[17] = Plasma stability
[18] = target: HERG (Homo sapiens (Human), UniProt Q12809); experiment: cell-based
HERG, sequence (Q12809 whole entry): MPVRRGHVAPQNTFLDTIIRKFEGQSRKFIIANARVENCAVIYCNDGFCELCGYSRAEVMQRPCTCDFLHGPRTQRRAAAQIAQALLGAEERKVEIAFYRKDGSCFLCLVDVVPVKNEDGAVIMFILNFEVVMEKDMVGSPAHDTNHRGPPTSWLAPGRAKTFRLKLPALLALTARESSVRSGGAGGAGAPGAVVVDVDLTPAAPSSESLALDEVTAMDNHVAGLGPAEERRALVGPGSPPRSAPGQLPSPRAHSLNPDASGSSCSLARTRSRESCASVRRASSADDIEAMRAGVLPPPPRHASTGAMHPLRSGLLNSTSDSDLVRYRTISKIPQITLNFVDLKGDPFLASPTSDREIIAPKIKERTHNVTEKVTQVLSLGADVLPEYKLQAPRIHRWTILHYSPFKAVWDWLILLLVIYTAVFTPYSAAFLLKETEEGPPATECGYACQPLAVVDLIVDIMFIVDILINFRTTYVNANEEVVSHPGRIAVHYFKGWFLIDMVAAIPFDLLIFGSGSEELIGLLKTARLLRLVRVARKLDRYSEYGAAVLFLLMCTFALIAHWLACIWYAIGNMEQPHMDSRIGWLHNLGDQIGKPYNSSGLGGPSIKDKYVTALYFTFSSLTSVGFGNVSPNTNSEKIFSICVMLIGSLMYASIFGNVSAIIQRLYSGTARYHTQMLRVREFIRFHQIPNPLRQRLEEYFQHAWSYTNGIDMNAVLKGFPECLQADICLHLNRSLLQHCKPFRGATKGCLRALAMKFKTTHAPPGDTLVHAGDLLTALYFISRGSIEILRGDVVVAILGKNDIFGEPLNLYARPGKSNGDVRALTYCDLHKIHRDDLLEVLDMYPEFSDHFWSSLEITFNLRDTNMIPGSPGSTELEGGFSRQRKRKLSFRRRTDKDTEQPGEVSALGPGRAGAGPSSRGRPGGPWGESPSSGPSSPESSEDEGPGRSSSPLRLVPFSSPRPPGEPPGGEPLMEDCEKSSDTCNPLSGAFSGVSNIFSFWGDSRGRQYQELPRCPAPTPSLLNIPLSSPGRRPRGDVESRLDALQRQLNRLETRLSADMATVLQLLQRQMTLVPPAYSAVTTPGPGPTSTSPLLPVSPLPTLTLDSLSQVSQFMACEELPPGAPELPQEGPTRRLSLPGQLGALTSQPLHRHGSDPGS

[19] = test system: S. aureus ATCC 29213; experiment: Antimicrobial susceptibility test (MIC), micro-dilution broth; assay type: cell-based; settings: Staphylococcus aureus, ATCC29213; S. aureus ATCC 29213; read-out: MIC S. aureus 29213
Outline: as §2

CYP 3A4, sequence (P08684 whole entry): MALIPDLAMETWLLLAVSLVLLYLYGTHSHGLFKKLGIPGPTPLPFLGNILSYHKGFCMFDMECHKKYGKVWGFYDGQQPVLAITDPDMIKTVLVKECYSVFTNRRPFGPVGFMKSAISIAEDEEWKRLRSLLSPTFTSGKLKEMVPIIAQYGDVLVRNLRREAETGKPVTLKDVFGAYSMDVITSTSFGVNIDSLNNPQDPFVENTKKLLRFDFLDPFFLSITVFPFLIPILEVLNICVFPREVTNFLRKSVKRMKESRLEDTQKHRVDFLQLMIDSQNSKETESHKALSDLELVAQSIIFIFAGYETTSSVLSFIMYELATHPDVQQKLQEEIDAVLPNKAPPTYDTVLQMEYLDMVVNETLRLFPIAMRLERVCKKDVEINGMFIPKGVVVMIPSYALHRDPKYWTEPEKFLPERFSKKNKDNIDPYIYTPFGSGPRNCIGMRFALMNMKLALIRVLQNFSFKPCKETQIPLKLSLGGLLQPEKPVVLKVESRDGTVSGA

## Cc1c(CN(C)C(=O)/C=C/c2cnc3c(c2)CC[C@H](N)C(=O)N3)oc2ccccc12 [(S)-11, (S,E)-3-(7-amino-8-oxo-6,7,8,9-tetrahydro-5H-pyrido[2,3-b]azepin-3-yl)-N-methyl-N-((3-methylbenzofuran-2-yl)methyl)acrylamide]
[1]
  IC50: 7 µM
[2]
  MIC: 4 µg/mL (≈ 9.89 µM)
[3]
  MIC: 4 µg/mL (≈ 9.89 µM)
[4]
  MIC: 4 µg/mL (≈ 9.89 µM)
[5]
  MIC: 8 µg/mL (≈ 19.8 µM)
[6]
  MIC: 1 µg/mL (≈ 2.47 µM)
[7]
  MIC: 4 µg/mL (≈ 9.89 µM)
[8]
  MIC: 2 µg/mL (≈ 4.94 µM)
[9]
  MIC: 2 µg/mL (≈ 4.94 µM)
[10]
  MIC: 4 µg/mL (≈ 9.89 µM)
[11]
  IC50: 27 µM
[12]
  Hepatocyte stability, Mouse: 6.1 μL/min/million cells
[13]
  IC50: 65 µM
[14]
  log reduction relative to the vehicle: 2.6 log
[15]
  IC50: 60 µM
[16]
  MIC: 2 µg/mL (≈ 4.94 µM)
[17]
  stability in mouse plasma (in words): considerable instability
[18]
  IC50: 21.8 µM
[19]
  MIC: 0.004 µg/mL (≈ 0.00989 µM)
